Our source for the Ki and Km values is ChEMBL document CHEMBL1145875, “Xylylated dimers of putrescine and polyamines: influence of the polyamine backbone on spermidine transport inhibition” (Bioorg Med Chem Lett, 2003).

The structures appear in SMILES notation.

Experiment [1] has as its target T47D. In words: (§1) Inhibition of spermidine transport determined in T-47D human breast cancer cells. Format: functional, cell-based.
Experiment [2] has as its system T47D. The experiment is described as §1. Format: functional, cell-based. The source holds these as a separate data set.

The term Ki denotes the equilibrium dissociation constant of an inhibitor or competing ligand from its target. A lower Ki goes with a stronger hold on the target. In turn, `NCCCNCCCCN(CCCN)Cc1ccc(CN(CCCN)CCCCNCCCN)cc1` gave a Ki in experiment [1] of 1.1 µM. On the same count and under the same terms, then `NCCCNCCCCNCCCN` [SPERMINE], with 2.1 µM.

In the case of `NCCCCCCN(CCCCCCN)Cc1ccc(CN(CCCCCCN)CCCCCCN)cc1`, the Ki in experiment [1] is 9.4 µM.

In experiment [1], `NCCCCN(CCCCN)Cc1ccc(CN(CCCCN)CCCCN)cc1` registered a Ki of 2.8 µM. In experiment [1], `NCCCCNCCCCN` displayed a Ki of 2.7 µM. The same measure, in the same setting: then `NCCC(CN)NCc1ccc(CNC(CN)CCN)cc1` (stereo not drawn), with 9.3 µM; and `NCCCCCNCCCCCN`, with 3.4 µM. The same measure, in the same setting: with `NCCCCN` [PUTRESCINE] the figure was over 500 µM; with `NCCC(CN)OCc1ccc(COC(CN)CCN)cc1` (stereo not drawn), 12.8 µM. The same measure, in the same setting: with `NCCCCCN(CCCCCN)Cc1ccc(CN(CCCCCN)CCCCCN)cc1` the figure was 2.8 µM; with `NCCCCCCNCCCCCCN`, 20.9 µM.

For orientation: Km means the substrate concentration at which the rate is half of its maximum. For the compound `NCCCCNCCCN`, the Km in experiment [2] was found to be 4.4 µM. Turning to `NCCCNCCCN` [NORSPERMIDINE], the inhibition constant (Ki) in experiment [1] was determined as 9.5 µM.
